In this experiment the test system is all types and subtypes of influenza tested. The experiment is classed as biochemical, influenza virus. The note with it: peramivir only 2019/20.

For `CCC(CC)[C@H](NC(C)=O)[C@@H]1[C@H](O)[C@@H](C(=O)O)C[C@H]1N=C(N)N` [Peramivir, peramivir], the “activity of NAI in the neuraminidase inhibition assay” value is listed as “most potent inhibitor”.

Source of the values: publication PMC9939793 (Infection and Drug Resistance, 2023).
